Measured values reported in patent US9278962B2 (Cytokinetics, Inc., priority 2011, dated 2016).

System: rabbit skeletal myofibrils (approximately 90% fast fibers)
Test: Activation of fast skeletal myofibrils (PUMA coupled-enzyme ATPase assay, AC1.4)
Type: biochemical
Details: Table 2; concentration at which the compound increased enzymatic activity by 40%; calcium at pCa25

Row | Mean AC1.4 | SMILES
1 | C (C=10-20 uM) | CN1CCN(Cc2nsc(NCC(C)(C)c3ccc(F)cc3)n2)CC1 [[2-(4-fluorophenyl)-2-methylpropyl]{3-[(4-methylpiperazinyl)methyl](1,2,4-thiadiazol-5-yl)}amine]
2 | A (A=<1 uM) | CC(C)(CNc1nc(-c2cncc(C(N)=O)c2)ns1)c1ccc(F)cc1 [5-(5-{[2-(4-fluorophenyl)-2-methylpropyl]amino}-1,2,4-thiadiazol-3-yl)pyridine-3-carboxamide]
3 | A (A=<1 uM) | COc1ccc(Cc2nsc(NCC(C)(C)c3ccc(Cl)cc3)n2)cc1 [[2-(4-chlorophenyl)-2-methylpropyl]{3-[(4-methoxyphenyl)methyl](1,2,4-thiadiazol-5-yl)}amine]
4 | C (C=10-20 uM) | COc1cccc(Cc2nsc(NCCc3cccc(F)c3)n2)c1 [[2-(3-fluorophenyl)ethyl]{3-[(3-methoxyphenyl)methyl](1,2,4-thiadiazol-5-yl)}amine]
5 | D (D=>20 uM) | Oc1cccc(Cc2nsc(NCc3ccc(Cl)cc3)n2)c1 [3-[(5-{[(4-chlorophenyl)methyl]amino}-1,2,4-thiadiazol-3-yl)methyl]phenol]
6 | D (D=>20 uM) | Oc1ccc(CCNc2nc(Cc3cccc(O)c3)ns2)cc1 [3-[(5-{[2-(4-hydroxyphenyl)ethyl]amino}-1,2,4-thiadiazol-3-yl)methyl]phenol]
7 | D (D=>20 uM) | Cc1ccc(Cc2nsc(NCCc3ccc(Cl)cc3Cl)n2)cc1 [[2-(2,4-dichlorophenyl)ethyl]{3-[(4-methylphenyl)methyl](1,2,4-thiadiazol-5-yl)}amine]
8 | B (B=1-10 uM) | CC(C)(CNc1nc(-c2cccc(CO)c2)ns1)c1ccc(F)cc1 [[3-(5-{[2-(4-fluorophenyl)-2-methylpropyl]amino}-1,2,4-thiadiazol-3-yl)phenyl]methan-1-ol]
9 | D (D=>20 uM) | CCOC(=O)/C=C/c1nsc(NCC(C)(C)c2ccc(F)cc2)n1 [ethyl (2E)-3-(5-{[2-(4-fluorophenyl)-2-methylpropyl]amino}(1,2,4-thiadiazol-3-yl))prop-2-enoate]
10 | A (A=<1 uM) | CNC(=O)c1ccc(-c2nsc(NCC(C)(C)c3ccc(F)cc3)n2)cc1 [[4-(5-{[2-(4-fluorophenyl)-2-methylpropyl]amino}(1,2,4-thiadiazol-3-yl))phenyl]-N-methylcarboxamide]
11 | D (D=>20 uM) | NC(=O)c1cccc(-c2nsc(NCCCc3ccccc3)n2)c1 [3-{5-[(3-phenylpropyl)amino]-1,2,4-thiadiazol-3-yl}benzamide]
12 | D (D=>20 uM) | CN(C)CCN(C)c1nsc(NCC(C)(C)c2ccc(F)cc2)n1 [[2-(dimethylamino)ethyl](5-{[2-(4-fluorophenyl)-2-methylpropyl]amino}(1,2,4-thiadiazol-3-yl))methylamine]
13 | B (B=1-10 uM) | COc1cccc(Cc2nsc(NCCc3ccc(Cl)cc3)n2)c1 [[2-(4-chlorophenyl)ethyl]{3-[(3-methoxyphenyl)methyl](1,2,4-thiadiazol-5-yl)}amine]
14 | D (D=>20 uM) | Fc1ccc(Cc2nsc(NCCc3ccncc3)n2)cc1 [{3-[(4-fluorophenyl)methyl](1,2,4-thiadiazol-5-yl)}(2-(4-pyridyl)ethyl)amine]
15 | D (D=>20 uM) | NC(=O)c1cccc(-c2nc(NCCc3ccccc3)ns2)c1 [3-(3-(phenethylamino)-1,2,4-thiadiazol-5-yl)benzamide]
16 | B (B=1-10 uM) | CC(C)(CNc1nc(-c2ccncc2)ns1)c1ccc(F)cc1 [[2-(4-fluorophenyl)-2-methylpropyl](3-(4-pyridyl)(1,2,4-thiadiazol-5-yl))amine]
17 | A (A=<1 uM) | CC(C)(CNc1nc(-c2ccc(O)cc2Cl)ns1)c1ccc(F)cc1 [3-chloro-4-(5-{[2-(4-fluorophenyl)-2-methylpropyl]amino}(1,2,4-thiadiazol-3-yl))phenol]
18 | D (D=>20 uM) | COC(=O)N1CCN(CCc2nsc(NCC(C)(C)c3ccc(F)cc3)n2)CC1 [methyl 4-[2-(5-{[2-(4-fluorophenyl)-2-methylpropyl]amino}-1,2,4-thiadiazol-3-yl)ethyl]piperazinecarboxylate]
19 | D (D=>20 uM) | COc1cccc(Cc2nsc(NCCc3ccccc3Cl)n2)c1 [[2-(2-chlorophenyl)ethyl]{3-[(3-methoxyphenyl)methyl](1,2,4-thiadiazol-5-yl)}amine]
20 | D (D=>20 uM) | Cc1nsc(NC(=O)C(C)(C)c2ccc(F)cc2)n1 [2-(4-fluorophenyl)-2-methyl-N-(3-methyl(1,2,4-thiadiazol-5-yl))propanamide]
21 | C (C=10-20 uM) | CC(Nc1nc(-c2cccc(C(N)=O)c2)ns1)C(=O)c1ccc(F)cc1 (stereo not shown) [3-(5-{[2-(4-fluorophenyl)-1-methyl-2-oxoethyl]amino}-1,2,4-thiadiazol-3-yl)benzamide]
22 | B (B=1-10 uM) | Oc1cccc(Cc2nsc(NCCc3cccc(Cl)c3)n2)c1 [3-[(5-{[2-(3-chlorophenyl)ethyl]amino}-1,2,4-thiadiazol-3-yl)methyl]phenol]
23 | D (D=>20 uM) | NC(=O)c1cccc(-c2nc(NCCCc3ccccc3)ns2)c1 [3-(3-(3-phenylpropylamino)-1,2,4-thiadiazol-5-yl)benzamide]

Row | SMILES | Mean AC1.4
24 | CN1CCC(CNc2nc(-c3cccc(C(N)=O)c3)ns2)(c2ccc(F)cc2)CC1 [3-[5-({[4-(4-fluorophenyl)-1-methyl-4-piperidyl]methyl}amino)-1,2,4-thiadiazol-3-yl]benzamide] | D (D=>20 uM)

Same assay, conditions: Table 3; concentration at which the compound increased enzymatic activity by 40%; calcium at pCa25

Row | Mean AC1.4 | SMILES
25 | D (D=>20 uM) | Fc1cccnc1C1(CNc2nnc(Cc3ccccc3)s2)CCC1 [5-benzyl-N-((1-(3-fluoropyridin-2-yl)cyclobutyl)methyl)-1,3,4-thiadiazol-2-amine]
26 | B (B=1-10 uM) | N#Cc1ccc(Cl)c(-c2nnc(NC[C@]3(c4ncccc4F)C[C@@H](F)C3)s2)c1 [4-chloro-3-(5-(((cis)-3-fluoro-1-(3-fluoropyridin-2-yl)cyclobutyl)methylamino)-1,3,4-thiadiazol-2-yl)benzonitrile]
27 | A (A=<1 uM) | CC(C)(CNc1nnc(-c2cc(Br)ccc2F)s1)c1ncccc1F [5-(5-bromo-2-fluorophenyl)-N-(2-(3-fluoropyridin-2-yl)-2-methylpropyl)-1,3,4-thiadiazol-2-amine]
28 | D (D=>20 uM) | Cn1nccc1-c1nnc(NC[C@]2(c3ncccc3F)C[C@H](F)C2)s1 [N-((3-fluoro-1-(3-fluoropyridin-2-yl)cyclobutyl)methyl)-5-(1-methyl-1H-pyrazol-5-yl)-1,3,4-thiadiazol-2-amine]
29 | B (B=1-10 uM) | Fc1cccnc1[C@]1(CNc2nnc(-c3ccccn3)s2)C[C@@H](F)C1 [N-((3-fluoro-1-(3-fluoropyridin-2-yl)cyclobutyl)methyl)-5-(pyridin-2-yl)-1,3,4-thiadiazol-2-amine]
30 | B (B=1-10 uM) | Cc1ccsc1-c1nnc(NC[C@]2(c3ncccc3F)C[C@H](F)C2)s1 [N-(((trans)-3-fluoro-1-(3-fluoropyridin-2-yl)cyclobutyl)methyl)-5-(3-methylthiophen-2-yl)-1,3,4-thiadiazol-2-amine]
31 | D (D=>20 uM) | Cn1cc(-c2nnc(NCC3(c4ncccc4F)CCC3)s2)cn1 [N-((1-(3-fluoropyridin-2-yl)cyclobutyl)methyl)-5-(1-methyl-1H-pyrazol-4-yl)-1,3,4-thiadiazol-2-amine]
32 | A (A=<1 uM) | Cc1ccc(F)c(-c2nnc(NC[C@]3(c4ncccc4F)C[C@H](F)C3)s2)c1 [N-((3-fluoro-1-(3-fluoropyridin-2-yl)cyclobutyl)methyl)-5-(2-fluoro-5-methylphenyl)-1,3,4-thiadiazol-2-amine]
33 | A (A=<1 uM) | Fc1ccccc1-c1nnc(NC[C@]2(c3ncccc3F)C[C@H](F)C2)s1 [N-((3-fluoro-1-(3-fluoropyridin-2-yl)cyclobutyl)methyl)-5-(2-fluorophenyl)-1,3,4-thiadiazol-2-amine]
34 | A (A=<1 uM) | Cc1ccc(C(N)=O)cc1-c1nnc(NC[C@]2(c3ncccc3F)C[C@H](F)C2)s1 [3-(5-((3-fluoro-1-(3-fluoropyridin-2-yl)cyclobutyl)methylamino)-1,3,4-thiadiazol-2-yl)-4-methylbenzamide]

Same assay, conditions: Table 4; concentration at which the compound increased enzymatic activity by 40%; calcium at pCa25

Row | Mean AC1.4 | SMILES
35 | B (B=1-10 uM) | CC(C)(CNc1nc2ccc(C#N)cc2s1)c1ccc(F)cc1 [2-(2-(4-fluorophenyl)-2-methylpropylamino)benzo[d] thiazole-6-carbonitrile]
36 | B (B=1-10 uM) | CC(C)(CNc1nc2cccc(C#N)c2s1)c1ccc(F)cc1 [2-(2-(4-fluorophenyl)-2-methylpropylamino)benzo[d] thiazole-7-carbonitrile]
37 | B (B=1-10 uM) | COc1cccc(C2(CNc3nc4ccc(C#N)cc4s3)CCC2)n1 [2-((1-(6-methoxypyridin-2-yl)cyclobutyl)methylamino)benzo[d] thiazole-6-carbonitrile]
38 | B (B=1-10 uM) | CC(C)(CNc1nc2ccccc2s1)c1ccc(F)cc1 [N-(2-(4-fluorophenyl)-2-methylpropyl)benzo[d]thiazol-2-amine]
39 | A (A=<1 uM) | N#Cc1cc(C(N)=O)cc2sc(NCC3(c4ncccc4F)CCC3)nc12 [4-cyano-2-((1-(3-fluoropyridin-2-yl)cyclobutyl)methylamino)benzo[d] thiazole-6-carboxamide]
40 | B (B=1-10 uM) | CCOC(=O)c1ccc2nc(NCC(C)(C)c3ccc(F)cc3)sc2c1 [ethyl 2-(2-(4-fluorophenyl)-2-methylpropylamino)benzo[d] thiazole-6-carboxylate]
41 | A (A=<1 uM) | Fc1ccc(C2(CNc3nc4ccc(Cl)cc4s3)CCC2)cc1 [6-chloro-N-((1-(4-fluorophenyl)cyclobutyl)methyl) benzo[d]thiazol-2-amine]
42 | A (A=<1 uM) | CC(C)(CNc1nc2ccc(Cl)cc2s1)c1ccc(F)cc1 [6-chloro-N-(2-(4-fluorophenyl)-2-methylpropyl)benzo[d]thiazol-2-amine]
43 | A (A=<1 uM) | NC(=O)c1ccc2nc(NCC3(c4ccc(F)cc4)CCC3)sc2c1 [2-((1-(4-fluorophenyl)cyclobutyl)methylamino) benzo[d]thiazole-6-carboxamide]
